The source of these data is patent publication US20090221653A1, “7-(2-amino-1-hydroxy-ethyl)-4-hydroxybenzothiazol-2(3H)-one-derivatives as beta2 adrenoreceptor agonists” (AstraZeneca AB, priority 2005, published 2009).

Structures are written as SMILES. Where a name gives a salt, the structure may show the parent alone.

Experiment [1] concerns the target T1, recombinant human α1D receptor (Homo sapiens, UniProt P25100).
T1 construct: expressed in transfected cells; host or cells: HEK293
T1 sequence (P25100 1-572): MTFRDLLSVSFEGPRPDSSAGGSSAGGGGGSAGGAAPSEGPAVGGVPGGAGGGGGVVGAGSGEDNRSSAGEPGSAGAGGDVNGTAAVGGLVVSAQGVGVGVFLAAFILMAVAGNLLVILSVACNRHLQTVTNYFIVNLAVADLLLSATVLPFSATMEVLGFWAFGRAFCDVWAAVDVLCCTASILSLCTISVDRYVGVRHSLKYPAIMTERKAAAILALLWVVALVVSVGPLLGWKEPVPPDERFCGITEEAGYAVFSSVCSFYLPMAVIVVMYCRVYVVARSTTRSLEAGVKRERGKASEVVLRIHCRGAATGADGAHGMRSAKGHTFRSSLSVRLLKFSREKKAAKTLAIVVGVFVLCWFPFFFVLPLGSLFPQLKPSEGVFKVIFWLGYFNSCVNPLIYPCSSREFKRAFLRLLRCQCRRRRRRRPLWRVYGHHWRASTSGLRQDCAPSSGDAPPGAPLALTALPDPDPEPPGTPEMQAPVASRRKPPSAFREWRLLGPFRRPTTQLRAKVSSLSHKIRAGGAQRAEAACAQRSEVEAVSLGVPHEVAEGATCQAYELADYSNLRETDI
As to the kind of experiment: Adrenergic α1D selectivity assay, inhibition of [3H]-prazosin binding. The conditions noted are these: HEK293 membranes, [3H]-prazosin 0.3 nM; read-out: α1 bind pIC50 (converted). An outline of the steps: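 HEK293 membranes expressing recombinant human α1D, with 0.3 nM [3H]-prazosin in 50 mM HEPES, 1 mM EDTA, 0.1% gelatin, pH 7.4. Incubation 2 h at room temperature, with 10 μM BMY7378 defining non-specific binding. Filtration and scintillation counting; NSB-subtracted specific binding.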

Experiment [2] concerns the target T2, recombinant human Dopamine Subtype D2s receptors (Homo sapiens, UniProt P14416).
T2 construct: purchased Perkin Elmer
Briefly: Dopamine D2 selectivity assay, inhibition of [3H]-spiperone binding. The note with it: membranes, [3H]-spiperone 0.16 nM; read-out: D2 bind pIC50 (converted).

T2 sequence (P14416 1-414 isoform P14416-2): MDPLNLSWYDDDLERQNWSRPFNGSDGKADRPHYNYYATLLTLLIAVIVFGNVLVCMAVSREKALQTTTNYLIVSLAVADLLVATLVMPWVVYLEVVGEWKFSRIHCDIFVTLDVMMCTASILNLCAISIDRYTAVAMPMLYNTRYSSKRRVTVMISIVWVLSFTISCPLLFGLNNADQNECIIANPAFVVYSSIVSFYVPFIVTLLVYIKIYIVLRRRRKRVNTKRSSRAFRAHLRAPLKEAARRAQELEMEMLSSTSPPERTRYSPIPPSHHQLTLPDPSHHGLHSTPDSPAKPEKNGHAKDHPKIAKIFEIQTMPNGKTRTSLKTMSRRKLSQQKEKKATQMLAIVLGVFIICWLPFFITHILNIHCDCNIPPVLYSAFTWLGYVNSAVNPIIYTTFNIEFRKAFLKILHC

For `Cl.O=c1[nH]c2c(O)ccc([C@@H](O)CNCCSCCOCCc3cccc4ccccc34)c2s1` [Example 4, 4-Hydroxy-7-((1R)-1-hydroxy-2-{[2-({2-[2-(1-naphthyl)ethoxy]ethyl}thio)ethyl]-amino}ethyl)-1,3-benzothiazol-2(3H)-one hydrochloride], the IC50 in experiment [1] is 200 nM; in experiment [2], 794 nM.

As to `O=c1[nH]c2c(O)ccc([C@@H](O)CNCCCS(=O)(=O)CCOCCc3cccc4ccccc34)c2s1` [Example 2, 4-Hydroxy-7-((1R)-1-hydroxy-2-{[3-({2-[2-(1-naphthyl)ethoxy]ethyl}sulfonyl)propyl]-amino}ethyl)-1,3-benzothiazol-2(3H)-one trifluoroacetate], the IC50 in experiment [1] is 1000 nM.
